Assays:
PDE3A = target: T1, PDE3A (Homo sapiens, UniProt Q14432); test: Inhibition of PDE3 (mobility-shift assay, LabChip 3000); format: biochemical; conditions: for IC50: PDE3A, iFL-cAMP substrate, 40 minute incubation; for activity against PDE3 compared with the respective enantiomer: statement in words in the summary
T1 construct: purchased BPS Bioscience 60030
From the text: Phosphodiesterase-3 (PDE3) is one of a family of phosphodiesterases responsible for the regulation of cyclic nucleotide second messengers. PDE3 enzymes are involved in regulation of cardiac and vascular smooth muscle contractility. Agents that inhibit PDE3 were originally investigated for the treatment of heart failure but have unwanted arrhythmic side effects. See Dart R. C., Medical Toxicology, Edition 3, page 708; Lippincott 2004.
Compounds of formula I were screened for their ability to inhibit PDE3 in a mobility-shift assay that quantitates the conversion of a flourescent analog of cyclic AMP to a flourescent analog of AMP using a LabChip 3000 (Caliper Life Sciences, Hopkinton, Mass.). Accordingly, a 0.6 μL aliquot of the test compound dissolved in DMSO was placed in a well of a 384-well plate, followed by the addition of a 15 μL aliquot of 200 ng/mL PDE3A (BPS Bioscience, San Diego, Calif., Catalog No. 60030) in 50 mM HEPES buffer at pH 7.5, containing 5 mM MgCl2 and 0.001% Brij-35 (Buffer A). The enzyme and compound were incubated at room temperature for 15 minutes, followed by the addition of a 15 μL aliquot of 2 μM iFL-cAMP (Caliper Life Sciences, Catalog No. 760444) in Buffer A. Following a 40 minute incubation at room temperature, the reaction was quenched by the addition of a 45 μL aliquot of 100 mM HEPES buffer at pH 7.5, containing 30 mM EDTA, 0.015% Brij-35, and 0.1% CR-3 (Caliper Life Sciences). […] Percent conversion was determined using HTS Well Analyzer software (Caliper Life Sciences, v5, SP2). IC50 values were determined using non-linear regression with Prism (v5.0a, GraphPad Software, Inc., La Jolla, Calif.).

c-Met = c-Met (Homo sapiens, UniProt P08581); test: c-Met kinase inhibition assay (radiometric, 33P-ATP, polyE4Y substrate); format: biochemical; conditions: 0.5 nM c-Met, 35 μM ATP, competitive tight-binding fit
Description: The compounds of the invention were screened for their ability to inhibit c-Met kinase using a standard radiometric assay. Briefly, in this kinase assay the transfer of the terminal ^33P-phosphate in ^33P-ATP to substrate polyE4Y is interrogated. The assay was carried out in 96-well plates to a final volume of 100 μL per well containing 0.5 nM c-Met, 100 mM HEPES (pH 7.5), 10 mM MgCl2, 25 mM NaCl, 0.01% BSA, 1 mM DTT, 0.5 mg/mL polyE4Y, and 35 μM ATP. Accordingly, compounds of the invention were dissolved in DMSO to make 10 mM initial stock solutions. Serial dilutions in DMSO were then made to obtain the final solutions for the assay. A 1.5 μL aliquot of DMSO or inhibitor in DMSO was added to each well, followed by the addition of ^33P-ATP, and finally the addition of c-Met and polyE4Y (obtained from Sigma). After 20 min, the reaction was quenched with 50 μL of 30% trichloroacetic acid (TCA) containing 4 mM ATP. The reaction mixture was transferred to the 0.66 mm GF filter plates (Corning) and washed three times with 5% TCA. Following the addition of 50 μL of Ultimate Gold™ high efficiency scintillant (Packard Bioscience), the samples were counted in a Packard TopCount NXT Microplate Scintillation and Luminescence Counter (Packard BioScience). The Ki values, shown in Table 2, were calculated using Microsoft Excel Solver macros to fit the data to the kinetic model for competitive tight-binding inhibition.

[1] = test system: Snu5-AP1-Luc-Pest cells (c-Met); test: Inhibition of c-Met activity in Snu5 gastric carcinoma cells (Snu5-AP1-Luc-Pest luciferase reporter); format: cell-based; conditions: Homo sapiens, SNU-5, 6 hours incubation, luciferase signal
From the text: Compounds of formula I were also screened for their ability to inhibit the Luciferase-induced signal in an engineered Snu5 cell line. Snu5 [obtained from American Type Culture Collection (Catalog number CRL-5973)] is a human gastric carcinoma known to overexpress c-Met, which is constitutively active. The cell line was transduced with the retrovirus, pCLPCX, which contains a genetic construct consisting of 6×AP 1 promoter response elements and a luciferase gene having a C-terminal PEST sequence (proteolytic signal from mouse ornithine decarboxylase, which reduces the half-life of the luciferase). The constitutively active c-Met activates cellular pathways (principally MAP kinase), resulting in AP-1-induced transcription of luciferase-PEST and translation into the final product, the activity of which is quantifiable as a chemiluminescent readout upon the addition of luciferin (Steady-Glo from Promega). Residual luminescence is strongly correlated to the inhibition of c-Met. A stable cell line was obtained by selecting the new cell line (Snu5-AP1-Luc-Pest) with puromycin. The cells were grown in complete media [Iscove's media (Invitrogen) containing 10% fetal bovine serum (FBS, Hyclone) and penicillin/gentamycin (Invitrogen)]. Compounds of the invention were dissolved in DMSO to make 10 mM initial stock solutions. Serial dilutions in DMSO were then made and transferred to complete medium to make a 10× solution. The Snu5-AP1-Luc-Pest cells were counted and diluted to 200,000-cells/mL solution. The cells (90 μL) were added to each well in a 96-well black with clear bottom plate (Costar). Then 10 μL of the 10× compound solution was added to the cells in triplicate. The plates were incubated in a 37° C./5% CO2 incubator. After 6 hours, 50 μL of the Steady-Glo reagent (Promega) was added to each well and placed on a plate shaker for 5 minutes to ensure that the cells were completely lysed. The plate was read on a 1450 Microbeta Liquid Scintillation and Luminescence Counter (Perkin-Elmer). The IC50 values, shown in Table 2, were calculated using a 4-parameter fit using the graphing software Prism (GraphPad).

T1 sequence (Q14432 669-1141 limits assumed): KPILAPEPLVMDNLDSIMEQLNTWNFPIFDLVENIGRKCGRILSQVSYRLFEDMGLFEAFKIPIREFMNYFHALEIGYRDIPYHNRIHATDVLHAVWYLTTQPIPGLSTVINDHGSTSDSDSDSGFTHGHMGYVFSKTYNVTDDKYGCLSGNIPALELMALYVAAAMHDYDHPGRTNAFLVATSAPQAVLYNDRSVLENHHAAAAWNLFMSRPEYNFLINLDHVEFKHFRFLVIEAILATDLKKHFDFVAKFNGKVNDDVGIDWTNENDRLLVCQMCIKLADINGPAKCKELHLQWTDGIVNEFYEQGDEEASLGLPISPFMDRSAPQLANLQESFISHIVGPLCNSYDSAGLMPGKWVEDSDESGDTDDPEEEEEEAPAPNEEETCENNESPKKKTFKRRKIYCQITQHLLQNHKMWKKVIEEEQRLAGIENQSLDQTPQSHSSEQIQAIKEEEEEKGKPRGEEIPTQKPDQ
Chain of c-Met (P08581 25-1390): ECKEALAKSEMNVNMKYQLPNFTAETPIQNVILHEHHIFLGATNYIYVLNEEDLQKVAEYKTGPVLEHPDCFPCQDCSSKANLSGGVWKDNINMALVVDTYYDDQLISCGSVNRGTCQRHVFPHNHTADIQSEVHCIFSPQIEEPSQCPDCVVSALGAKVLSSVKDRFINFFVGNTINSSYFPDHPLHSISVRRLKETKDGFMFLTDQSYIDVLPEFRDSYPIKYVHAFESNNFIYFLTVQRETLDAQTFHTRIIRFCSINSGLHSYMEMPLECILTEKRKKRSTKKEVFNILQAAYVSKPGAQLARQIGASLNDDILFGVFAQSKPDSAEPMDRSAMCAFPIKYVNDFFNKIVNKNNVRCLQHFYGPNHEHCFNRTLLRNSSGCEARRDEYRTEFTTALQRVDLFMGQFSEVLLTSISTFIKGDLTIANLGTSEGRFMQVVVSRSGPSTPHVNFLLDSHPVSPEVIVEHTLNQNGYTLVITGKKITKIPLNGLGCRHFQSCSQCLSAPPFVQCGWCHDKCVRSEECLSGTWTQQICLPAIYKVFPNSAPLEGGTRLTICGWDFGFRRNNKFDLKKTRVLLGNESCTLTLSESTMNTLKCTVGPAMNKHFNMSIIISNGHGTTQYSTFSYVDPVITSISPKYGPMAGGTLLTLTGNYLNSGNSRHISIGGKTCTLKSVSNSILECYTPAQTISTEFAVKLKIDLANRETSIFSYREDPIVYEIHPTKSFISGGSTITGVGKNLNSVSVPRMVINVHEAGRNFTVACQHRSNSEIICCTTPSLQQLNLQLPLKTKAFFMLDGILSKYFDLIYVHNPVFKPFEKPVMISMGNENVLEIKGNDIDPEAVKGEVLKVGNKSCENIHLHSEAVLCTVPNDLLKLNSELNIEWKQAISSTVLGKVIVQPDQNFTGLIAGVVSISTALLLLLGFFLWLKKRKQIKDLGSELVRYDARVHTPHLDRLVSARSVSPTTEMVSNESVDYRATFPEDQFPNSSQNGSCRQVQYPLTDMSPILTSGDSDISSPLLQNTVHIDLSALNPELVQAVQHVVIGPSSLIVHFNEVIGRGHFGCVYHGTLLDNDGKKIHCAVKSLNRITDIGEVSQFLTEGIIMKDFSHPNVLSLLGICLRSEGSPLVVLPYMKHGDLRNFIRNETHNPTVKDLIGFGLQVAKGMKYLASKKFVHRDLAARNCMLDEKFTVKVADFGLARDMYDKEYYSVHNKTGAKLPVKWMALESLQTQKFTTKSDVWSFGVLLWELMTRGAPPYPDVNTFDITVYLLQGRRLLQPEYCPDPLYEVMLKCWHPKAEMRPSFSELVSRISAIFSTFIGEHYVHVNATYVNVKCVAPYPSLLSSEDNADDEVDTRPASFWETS

Row | SMILES | IC50 (PDE3A) | activity against PDE3 compared with the respective enantiomer (PDE3A) | Ki (c-Met) | IC50 [1]
1 | C[C@H](c1ccc2ncccc2c1)c1nnc2sc(-c3cnn(C)c3)nn12 [Compound 1, 6-((R)-1-(6-(1-methyl-1H-pyrazol-4-yl)-[1,2,4]triazolo[3,4-b][1,3,4]thiadiazol-3-yl)ethyl)quinoline] | 6600 nM | surprisingly less active against PDE3 than their respective enantiomers | < 300 nM | < 100 nM
2 | C[C@@H](c1ccc2ncccc2c1)c1nnc2sc(-c3cnn(C)c3)nn12 [Compound 1a] | 760 nM | – | < 300 nM | < 100 nM
3 | C[C@H](c1c(F)cc2ncccc2c1F)c1nnc2sc(-c3cnn(C)c3)nn12 [Compound 2, 5,7-difluoro-6-((R)-1-(6-(1-methyl-1H-pyrazol-4-yl)-[1,2,4]triazolo[3,4-b][1,3,4]thiadiazol-3-yl)ethyl)quinoline] | 6150 nM | surprisingly less active against PDE3 than their respective enantiomers | < 300 nM | < 100 nM
4 | C[C@@H](c1c(F)cc2ncccc2c1F)c1nnc2sc(-c3cnn(C)c3)nn12 [Compound 2a] | 150 nM | – | < 300 nM | < 100 nM
